What all share (format): cell-based
Data set [1] concerns LOX human melanoma cell adhesion to human collagen I. Nature of the data set: LOX cell adhesion to collagen I. To be noted: read-out: Collagen I IC50. As for the experimental part:
(§1) Adhesion assays were run essentially as described previously (Pai et al., J. Biomed. Res. 2: 53, 1992). 96-well plates were coated with human fibronectin (140 ng/well), human vitronectin (75 ng/well), human collagen I (100 ng/well), human collagen IV (100 ng/well), human fibrinogen (1 μg/well), murine laminin (600 ng/well), or polylysine, and incubated overnight in a humidified 37° C. incubator. Excess fibronectin or other substrate was then removed and 0.2 ml of 2 mg/ml bovine serum albumin (BSA)in Dulbecco's phosphate-buffered saline (DPBS) was added to each well, incubated for 2 hours at 37° C., and removed. LOX human melanoma cells, M27 murine lung carcinoma cells or B16F10 mouse melanoma cells were detached from tissue culture flasks with RPMI medium containing 0.2M urea and 10 mM EDTA, and 0.18 ml of cells were added to each well to a final cell concentration of 1×10^5 cells/well. For inhibition studies 20 μl of 10× compound was added to the wells prior to cell addition. Cells were allowed to adhere for 1 hour at 37° C. The wells were then gently washed twice with 0.2 ml DPBS. The fluorescent dye calcein AM (Molecular Probes, Eugene Oreg.) in DPBS (0.1 ml of 1 μM) was added to each well, and the plates were incubated for 1 hour at room temperature. Adherent cells were quantitated by reading the fluorescence on a Cytofluor 2300 fluorescent plate reader (Millipore) at 485 nm excitation and 530 nm emission.

The test system of data set [2] is LOX human melanoma cell adhesion to human vitronectin. Nature of the data set: LOX cell adhesion to vitronectin. Conditions: read-out: Vitronectin IC50. As to the method:
as §1

For data set [3], the system named is LOX human melanoma cell adhesion to human fibrinogen. Description: LOX cell adhesion to fibrinogen. To be noted: read-out: Fibrinogen IC50. As for the experimental part: as §1
The next data set concerns LOX human melanoma cells. Nature of the data set: Tumor cell invasion through collagen/fibronectin coated membranes. To be noted: for IC50: Homo sapiens, 5 hours; for inhibition of in vitro tumor cell invasion: fibronectin/collagen matrix. As to the method:
[…] Cell Invasion Through Collagen/Fibronectin Coated Membranes:
Nucleopore polycarbonate membranes (8 μm pore size) were coated with 0.05 ml of type I collagen and allowed to dry overnight. 210 μl of serum free DMEM with BSA was added to each Boyden chamber. Membranes were placed in chambers and upper chambers were screwed on. Human fibronectin (50 μl of 0.1 mg/ml solution in DMEM with BSA) was added to the top chamber and allowed to sit on membranes for 1 hour at room temperature. Compounds (50 μl) at 10× concentration in DMEM with BSA were added to the chambers. LOX melanoma cells were detached from flasks with trypsin/EDTA solution and resuspended in RPMI with 10% fetal bovine serum. Cells were centrifuged, washed 2× with DMEM with BSA, and resuspended in 10 ml of DMEM with BSA. LOX cells (0.45 ml of 7.8×10^5 cells per ml) were added to each chamber and chambers were incubated for 5 hours at 37° C. The medium was removed from the upper chamber by aspiration, the top chamber was unscrewed, and the membrane was removed. The membrane was inverted, pinned to a dissecting tray, and fixed with Diff Quik fixative for 3 minutes The fixative was then removed and Diff Quik Stain was added for 2 minutes. The stain was decanted and membranes were rinsed with distilled water. Membranes were inverted onto glass slides, and non-invading cells were wiped away with a cotton swab. Permount was added to the slide and the membrane was covered with a cover slip. The number of cells that invaded was quantitated on a Nikon TMS microscope with C-2 Image Analyzer software (Olympus Corp.).
The greater potency of the compounds in this assay (IC50 for compound B<400 nM) may result from the longer duration of this assay (5 hours) relative to the fibronectin adhesion assay (1 hour).

In data set [4] the test system is LOX human melanoma cell adhesion to human fibronectin. Nature of the data set: LOX melanoma cell adhesion to fibronectin. Conditions: Homo sapiens, LOX; for inhibition at 10 µM: read-out: % Inhibition at 10 μM; for inhibition at 50 µM: read-out: % Inhibition at 50 μM. The gist of the method: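 Compound added to fibronectin-coated (140 ng/well), BSA-blocked wells before LOX cells (1×10^5/well, detached with urea/EDTA). Cells adhered 1 h at 37 °C, then washed. Adherent cells quantified by calcein AM fluorescence (485/530 nm); IC50 for adhesion inhibition.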

In a further data set the target is T1, ICAM-1 (Homo sapiens, UniProt P05362).
T1 construct: recombinant soluble ICAM-1 (2 μg/well)
T1 sequence (P05362 28-480 limits assumed): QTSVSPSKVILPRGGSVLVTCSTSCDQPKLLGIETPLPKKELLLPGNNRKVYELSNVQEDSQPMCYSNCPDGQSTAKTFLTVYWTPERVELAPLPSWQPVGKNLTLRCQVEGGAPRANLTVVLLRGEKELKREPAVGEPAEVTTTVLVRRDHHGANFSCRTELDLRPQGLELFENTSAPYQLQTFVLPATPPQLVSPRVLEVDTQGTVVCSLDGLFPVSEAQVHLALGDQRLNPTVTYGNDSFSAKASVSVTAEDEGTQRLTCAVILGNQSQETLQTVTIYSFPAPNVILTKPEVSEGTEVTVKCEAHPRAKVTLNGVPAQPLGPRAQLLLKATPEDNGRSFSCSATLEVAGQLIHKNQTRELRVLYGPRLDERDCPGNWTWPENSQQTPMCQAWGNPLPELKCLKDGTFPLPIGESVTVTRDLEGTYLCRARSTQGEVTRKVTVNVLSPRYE
Nature of the data set: HL-60 cell adhesion to recombinant soluble ICAM-1. To be noted: HL-60 cells. As for the experimental part:
For measurement of cell adhesion to ICAM-1, HL-60 human leukemia cells were induced to differentiate in the presence of DMSO for 6 days. Adhesion of DMSO-differentiated HL-60 cells to recombinant soluble ICAM-1 (2 μg/well) was measured as described above for LOX cell adhesion, except that the adhesion was allowed to proceed for 30 minutes, rather than 1 hour, at 37° C.
ICAM-1 is a cell surface adhesion molecule that participates in cell-cell adhesion interactions, rather than cell-matrix adhesion interactions.

Data set [5] relates to LOX human melanoma cell adhesion to human collagen IV. Description: LOX cell adhesion to collagen IV. Conditions: read-out: Collagen IV IC50. As to the method:
as §1

Data set [6] has as its system LOX human melanoma cell adhesion to murine laminin. Description: LOX cell adhesion to laminin. Conditions: read-out: Laminin IC50. As for the experimental part: as §1
Another data set is described as follows: MTT cytotoxicity assay. Conditions: human, lox melanoma cells; for CC50 at 1 h: read-out: MTT 1 Hr LD50. As to the method:
LOX human melanoma cells, in RPMI medium with 2 mg/ml BSA and 25 mM HEPES, pH 7.4, were seeded at 4×10^4 cells/well in 96-well microtiter plates and grown overnight in a humidified 37° C. incubator. On the following day, the medium was aspirated and wells were washed once with 0.1 ml of DPBS. Compounds (0.1 ml) in DPBS were added to wells in quadruplicate at appropriate concentrations. The cells were then incubated with test compound for 1 hour at 37° C. Wells were aspirated and washed 2× with 0.1 ml DPBS. MTT [3-(4,5-Dimethylthiazol-2-yl)-2,5-diphenyltetrazolium bromide] (0.1 ml of 1 mg/ml solution in PBS from Sigma Chemical Co.) was added to each well and incubated for 2 hour at 37° C. MTT was aspirated and 0.1 ml of 50% N,N-dimethylformamide with 20% sodium dodecyl sulfate was added to each well. Plates were shaken for 10 minutes on a Titer-Plate shaker (Labline) at room temperature. Optical density was read at 570 nm with a plate-reading spectrophotometer (Dynatech MR5000).

The test system of data set [7] is B16-F10 mouse melanoma cell adhesion to fibronectin. Description: B16-F10 melanoma cell adhesion to fibronectin. To be noted: read-out: B16 FN IC50. As for the experimental part:
as §1

The values below come from US5461057A, “Hydro-ethano-indeno-pyridines” (priority 1994, dated 1995).

Read-outs that look alike come from different tables or passages of the source.

The term IC50 denotes the concentration that inhibits the measured activity by half. As usually defined, the inhibition is the drop in the measured response relative to a control, in per cent.

Consider `COc1ccc(C2=C3CC4CCC(N4)C3c3ccccc32)cc1` (centres unmarked) [Compound B], for which the IC50 in data set [1] is 6.7 µM; in data set [2] it was 16.8 µM; in data set [3], 9.9 µM; in the data set on LOX human melanoma cells (read-out: Invasion IC50) it was < 0.4 µM; in the data set with LOX human melanoma cells (read-out: Invasion IC50 (text)), < 0.4 µM; in [4] (1 h, read-out: LOX FN IC50), 5.1 µM. Moreover, the IC50 in [4] (read-out: Fibronectin IC50) was 5.1 µM; on ICAM-1, > 50 µM; in data set [5], 16.2 µM; in data set [6], 7.7 µM; in data set [7], 14.7 µM. The “inhibition of in vitro tumor cell invasion” value in the data set on LOX human melanoma cells is given as “inhibit in vitro tumor cell invasion through a fibronectin/collagen matrix”. Moreover, the inhibition at 10 µM in [4] amounted to 61.8%. For the same compound, the inhibition at 50 µM in [4] came to 101%. Moreover, in the data set “MTT cytotoxicity assay” (MTT, read-out: selectivity for blockade of fibronectin adhesion vs. cytotoxicity (MTT 1 hour)), the selectivity ratio at 1 h worked out at 19. Further, the CC50 at 1 h in the data set “MTT cytotoxicity assay” stood at 97.6 µM.

On to `CN1C2CCC1C1C(=C(c3ccc(Cl)cc3)c3ccccc31)C2` (centres unmarked) [C], for which the IC50 in [1] was found to be 4 µM; in data set [2] it was 5.9 µM; in data set [3] it was 6.2 µM; in the data set with LOX human melanoma cells (read-out: Invasion IC50) it was 0.66 µM; in data set [4] (1 h, read-out: LOX FN IC50) it was 7.3 µM; in data set [4] (read-out: Fibronectin IC50), 7.3 µM. For the same compound, the IC50 at ICAM-1 turned out to be 24.8 µM; in data set [5], 9.9 µM; in data set [6], 3.5 µM; in [7], 15.1 µM. For the same compound, the “inhibition of in vitro tumor cell invasion” value with LOX human melanoma cells is “inhibit in vitro tumor cell invasion through a fibronectin/collagen matrix”. Besides, in [4], the inhibition at 10 µM worked out at 58.6%. Besides, the inhibition at 50 µM in [4] turned out to be 101%. The CC50 at 1 h in the data set “MTT cytotoxicity assay” came to 95.1 µM.

Consider `Cc1ccc(C2=C3CC4CCC(C3c3ccccc32)N4C)cc1` (centres unmarked) [J], for which the IC50 turned out to be 4.5 µM in [1]; 12.8 µM in data set [2]; 13.5 µM in data set [3]; 0.48 µM in the data set with LOX human melanoma cells (read-out: Invasion IC50); 5.3 µM in data set [4] (1 h, read-out: LOX FN IC50); 5.3 µM in data set [4] (read-out: Fibronectin IC50). Further, the IC50 at ICAM-1 was > 50 µM; in data set [5], 10 µM; in data set [6], 2.5 µM; in [7], 15.9 µM. For the same compound, in the data set on LOX human melanoma cells, the “inhibition of in vitro tumor cell invasion” value was “inhibit in vitro tumor cell invasion through a fibronectin/collagen matrix”. In addition, the inhibition at 10 µM in [4] is 31.1%. Also, the inhibition at 50 µM in [4] turned out to be 101%. Further, the CC50 at 1 h in “MTT cytotoxicity assay” is 54.6 µM.
